Measurements taken from US10927128B2, “Oxadiazaspiro compounds for the treatment of drug abuse and addiction” (ESTEVE PHARMACEUTICALS, S.A., priority 2015, dated 2021).
Read-outs that look alike come from different tables or passages of the source.

Target: human σ1 receptor (Homo sapiens (Human), UniProt Q99720)
Test: Human σ1 receptor radioligand assay
Format: binding
Protocol: Human σ1 Receptor Radioligand Assay
To investigate binding properties of test compounds to human σ1 receptor, transfected HEK-293 membranes and [^3H](+)-pentazocine (Perkin Elmer, NET-1056), as the radioligand, were used. The assay was carried out with 7 μg of membrane suspension, 5 nM of [^3H](+)-pentazocine in either absence or presence of either buffer or 10 μM Haloperidol for total and non-specific binding, respectively. Binding buffer contained Tris-HCl 50 mM at pH 8. Plates were incubated at 37° C. for 120 minutes. After the incubation period, the reaction mix was then transferred to Multiscreen HTS, FC plates (Millipore), filtered and plates were washed 3 times with ice-cold 10 mM Tris-HCL (pH7.4). Filters were dried and counted at approximately 40% efficiency in a MicroBeta scintillation counter (Perkin-Elmer) using EcoScint liquid scintillation cocktail

Sequence of human σ1 receptor (Q99720 whole entry): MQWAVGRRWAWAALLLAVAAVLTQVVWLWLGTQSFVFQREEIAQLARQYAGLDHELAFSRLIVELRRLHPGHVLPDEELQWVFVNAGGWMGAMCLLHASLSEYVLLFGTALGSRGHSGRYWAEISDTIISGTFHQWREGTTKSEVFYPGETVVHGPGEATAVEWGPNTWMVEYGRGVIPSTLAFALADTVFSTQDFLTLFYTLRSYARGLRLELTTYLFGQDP

## CCN1CC2(CCN(CCC(C)(C)C)CC2)O[C@@H](C)C1=O [Example 52, (S)-9-(3,3-dimethylbutyl)-4-ethyl-2-methyl-1-oxa-4,9-diazaspiro[5.5]undecan-3-one]
  Ki: 100 to 500 nM

## CCN1CC(C)OC2(CCN(CCc3ccccc3)CC2)C1 (centres unmarked) [Example 112, 4-Ethyl-2-methyl-9-phenethyl-1-oxa-4,9-diazaspiro[5.5]undecane]
[3H](+)-pentazocine radioligand, transfected HEK-293 membranes, read-out: Ki-σ1
  Ki: < 100 nM
